Earlier results on one substance are cited in paper PMC7524040 (Biochemistry, 2020).

Ends that are not written are not given here.

The test system of series [1] is native IKACh channel.
Series [2] deals with cardiac heteromeric Kir3.1/3.4 channel. The conditions noted are these: heteromeric Kir3.1/Kir3.4 channels.

As to “Tertiapin (ALCNCNRIIIPHMCWKKCGKK; not fully specified (C-terminus, bridges); ends and bridges not checked; UniProt P56587 1-21, looked up) [TPN]”, the half-inhibitory concentration (IC50) in series [1] is 30 nM. Besides, the “decrease in the inhibitory action after air oxidation of M13” value in series [2] is given as 4- to 5 fold.

For orientation: IC50 means the concentration that gives 50% inhibition.
